According to patent US20250092039A1, “GLUTARIMIDE-CONTAINING PAN-KRAS-MUTANT DEGRADER COMPOUNDS AND USES THEREOF” (Tiger Biotherapeutics Inc., priority 2022, published 2025):
pIC50: −log10 of the molar value.

Experiments:
[1] = Pharmacokinetics following single intravenous and oral gavage dosing (AUC0-24h); format: in vivo; conditions: mouse, plasma; single oral dose 30 mg/Kg, male CD-1 mice
Protocol: Compounds disclosed herein were studied for animal tolerability and pharmacokinetics following single intravenous (iv) and oral gavage (po) dosing to male CD-1 mice. For each compound in each dosing route, 3 mice were used with iv dosing volume of 5 mL/kg and po dosing volume of 10 mL/kg. The compounds were formulated in 10% DMSO, 30% PEG400, 60% aqueous solution containing 20% 2-hydroxypropyl-β-cyclodextrin. Blood sampling time points for iv dosing were 0.083, 0.25, 0.5, 1, 2, 4, 8 and 24 h. The sampling time points for po dosing were 0.25, 0.5, 1, 2, 4, 6, 8 and 24 h. Mice activities were monitored and recorded immediately following the dosing. The prepared plasma samples were analyzed using LC/MS/MS on AB Sciex Triple Quad 5500+ system. The PK parameters were determined by non-compartmental analysis using WinNonlin (Version 8.0).

KRAS-G12V/RAF1 = KRAS-G12V/RAF1 (Homo sapiens (Human), UniProt P01116, G12V); assay: KRAS/RAF1 binding inhibition assay (AlphaScreen)
KRAS-G12V/RAF1, sequence (P01116-2 other isoform, or with tags, fused parts or gaps G12V): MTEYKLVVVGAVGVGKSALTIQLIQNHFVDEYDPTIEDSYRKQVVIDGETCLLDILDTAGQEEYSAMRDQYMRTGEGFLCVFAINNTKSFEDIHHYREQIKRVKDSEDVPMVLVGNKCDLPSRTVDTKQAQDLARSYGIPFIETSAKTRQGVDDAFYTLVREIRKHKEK
Summary of the method: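 Binding of GppNHp-loaded KRAS G12V to the RAF1 RBD was measured by AlphaScreen with test compound present in 2% DMSO (final), 60 min incubation at 4° C. Signals were converted to % inhibition versus DMSO, and IC50 was obtained by variable-slope nonlinear regression.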

KRAS G12V = KRAS G12V (Homo sapiens (Human), UniProt P01116, G12V); assay: KRAS G12V degradation in SW620 cells (Western blot, DC50); format: cell-based; conditions: 24 hours
KRAS G12V, sequence (P01116-2 other isoform, or with tags, fused parts or gaps G12V): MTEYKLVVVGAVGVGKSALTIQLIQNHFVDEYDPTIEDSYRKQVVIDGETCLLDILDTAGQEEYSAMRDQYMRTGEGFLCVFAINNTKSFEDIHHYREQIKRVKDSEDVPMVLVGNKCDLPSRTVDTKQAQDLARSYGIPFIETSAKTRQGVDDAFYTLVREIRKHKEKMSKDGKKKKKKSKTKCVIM
Summary of the method: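 SW620 cells (homozygous KRAS G12V) were treated with compound for 24 hours at 37° C. KRAS in lysates was measured by Western blot with fluorescent secondary antibodies and expressed relative to DMSO vehicle (100%). DC50 came from a four-parameter variable-slope dose-response fit.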

SW620 cells = assay: 3D cell growth inhibition of SW620 cells carrying endogenous KRAS G12V mutation (CellTiter-Glo 3D, GI50); format: cell-based; conditions: Homo sapiens, SW-620, 144 h; SW620 cells, 6 days; read-out: SW620 3D cell growth GI50
Summary of the method: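 SW620 cells (endogenous KRAS G12V) grown in 3D were dosed next day with compound from DMSO stocks at various concentrations, then incubated 6 days at 37° C.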

| AUC(0-t) [1] [ng·h/mL] | pIC50 (KRAS-G12V/RAF1) | DC50 (KRAS G12V) [nM] | GI50 (SW620 cells) [nM] | Structure (SMILES) |
| --- | --- | --- | --- | --- |
| 220 |  |  |  | CCc1c(F)ccc2cc(O)cc(-c3ncc4c(N5CCC[C@@](C)(O)C5)nc(OCC5(CN6CCC(CN7CCN(c8ccc9c(c8)CN([C@H]8CCC(=O)NC8=O)C9=O)CC7)CC6)CC5)nc4c3F)c12 [Compound 1, (S)-3-(5-(4-((1-((1-(((7-(8-ethyl-7-fluoro-3-hydroxynaphthalen-1-yl)-8-fluoro-4-((R)-3-hydroxy-3-methylpiperidin-1-yl)pyrido[4,3-d]pyrimidin-2-yl)oxy)methyl)cyclopropyl)methyl)piperidin-4-yl)methyl)piperazin-1-yl)-1-oxoisoindolin-2-yl)piperidine-2,6-dione] |
| 3420 | 6.70 to 7.70 | < 1 | < 10 | CCc1c(F)ccc2cc(O)cc(-c3ncc4c(N5CCC[C@@](C)(O)C5)nc(OCC5(CN6CCC(F)(CN7CCN(c8ccc9c(c8)CN([C@H]8CCC(=O)NC8=O)C9=O)CC7)CC6)CC5)nc4c3F)c12 [Compound 8, (S)-3-(5-(4-((1-((1-(((7-(8-ethyl-7-fluoro-3-hydroxynaphthalen-1-yl)-8-fluoro-4-((R)-3-hydroxy-3-methylpiperidin-1-yl)pyrido[4,3-d]pyrimidin-2-yl)oxy)methyl)cyclopropyl)methyl)-4-fluoropiperidin-4-yl)methyl)piperazin-1-yl)-1-oxoisoindolin-2-yl)piperidine-2,6-dione] |
| 10700 |  |  |  | CCc1c(F)ccc2cc(O)cc(-c3ncc4c(N5CCC[C@@](C)(O)C5)nc(OCC5(CN6CCC(F)(CN7CCN(c8cccc9c8n(C)c(=O)n9C8CCC(=O)NC8=O)CC7)CC6)CC5)nc4c3F)c12 (stereo partly drawn) [Compound 65, 3-(4-(4-((1-((1-(((7-(8-ethyl-7-fluoro-3-hydroxynaphthalen-1-yl)-8-fluoro-4-((R)-3-hydroxy-3-methylpiperidin-1-yl)pyrido[4,3-d]pyrimidin-2-yl)oxy)methyl)cyclopropyl)methyl)-4-fluoropiperidin-4-yl)methyl)piperazin-1-yl)-3-methyl-2-oxo-2,3-dihydro-1H-benzo[d]imidazol-1-yl)piperidine-2,6-dione] |
| 7420 |  |  |  | CCc1c(F)ccc2cc(O)cc(-c3ncc4c(N5CCC[C@@](C)(O)C5)nc(OCC5(CN6CCC(F)(CN7CCN(c8ccc9c(C%10CCC(=O)NC%10=O)nn(C)c9c8)CC7)CC6)CC5)nc4c3F)c12 (stereo partly drawn) [Compound 66, 3-(6-(4-((1-((1-(((7-(8-ethyl-7-fluoro-3-hydroxynaphthalen-1-yl)-8-fluoro-4-((R)-3-hydroxy-3-methylpiperidin-1-yl)pyrido[4,3-d]pyrimidin-2-yl)oxy)methyl)cyclopropyl)methyl)-4-fluoropiperidin-4-yl)methyl)piperazin-1-yl)-1-methyl-1H-indazol-3-yl)piperidine-2,6-dione] |
| 11900 |  |  |  | CCc1c(F)ccc2cc(O)cc(-c3ncc4c(N5CCC[C@@](C)(O)C5)nc(OCC5(CN6CCC(F)(CN7CCN(c8ccc(C9CCC(=O)NC9=O)c(F)c8)CC7)CC6)CC5)nc4c3F)c12 (stereo partly drawn) [Compound 84, 3-(4-(4-((1-((1-(((7-(8-ethyl-7-fluoro-3-hydroxynaphthalen-1-yl)-8-fluoro-4-((R)-3-hydroxy-3-methylpiperidin-1-yl)pyrido[4,3-d]pyrimidin-2-yl)oxy)methyl)cyclopropyl)methyl)-4-fluoropiperidin-4-yl)methyl)piperazin-1-yl)-2-fluorophenyl)piperidine-2,6-dione] |
|  | < 6.70 | < 1 | < 10 | CCc1cccc2cc(O)cc(-c3ncc4c(N5CCC[C@@](C)(O)C5)nc(OCC5(CN6CCC(OC7CC8(CCN(c9ccc%10c(c9)CN(C9CCC(=O)NC9=O)C%10=O)CC8)C7)CC6)CC5)nc4c3F)c12 (stereo partly drawn) [Compound 181, 3-(5-(2-((1-((1-(((7-(8-ethyl-3-hydroxynaphthalen-1-yl)-8-fluoro-4-((R)-3-hydroxy-3-methylpiperidin-1-yl)pyrido[4,3-d]pyrimidin-2-yl)oxy)methyl)cyclopropyl)methyl)piperidin-4-yl)oxy)-7-azaspiro[3.5]nonan-7-yl)-1-oxoisoindolin-2-yl)piperidine-2,6-dione] |
|  | < 6.70 | > 100 | 10 to 100 | CCc1c(F)ccc2cc(O)cc(-c3ncc4c(N5CCC[C@@](C)(O)C5)nc(OCC5(CN6CC7(CCC(F)(CN8CCN(c9ccc(C(=O)N[C@H]%10CCC(=O)NC%10=O)c(F)c9)CC8)CC7)C6)CC5)nc4c3F)c12 [Compound 183, N-((S)-2,6-dioxopiperidin-3-yl)-4-(4-((2-((1-(((7-(8-ethyl-7-fluoro-3-hydroxynaphthalen-1-yl)-8-fluoro-4-((R)-3-hydroxy-3-methylpiperidin-1-yl)pyrido[4,3-d]pyrimidin-2-yl)oxy)methyl)cyclopropyl)methyl)-7-fluoro-2-azaspiro[3.5]nonan-7-yl)methyl)piperazin-1-yl)-2-fluorobenzamide] |
|  | < 6.70 | < 1 | < 10 | CCc1c(F)ccc2cc(O)cc(-c3ncc4c(N5CCC[C@@](C)(O)C5)nc(OCC5(CN6CCC7(CC6)CC(C6CCN(c8ccc9c(c8)CN(C8CCC(=O)NC8=O)C9=O)CC6)C7)CC5)nc4c3F)c12 (stereo partly drawn) [Compound 186, 3-(5-(4-(7-((1-(((7-(8-ethyl-7-fluoro-3-hydroxynaphthalen-1-yl)-8-fluoro-4-((R)-3-hydroxy-3-methylpiperidin-1-yl)pyrido[4,3-d]pyrimidin-2-yl)oxy)methyl)cyclopropyl)methyl)-7-azaspiro[3.5]nonan-2-yl)piperidin-1-yl)-1-oxoisoindolin-2-yl)piperidine-2,6-dione] |
|  | 6.70 to 7.70 | < 1 | < 10 | CCc1c(F)ccc2cc(O)cc(-c3ncc4c(N5CCC[C@]6(CCO6)C5)nc(OCC5(CN6CCC7(CC6)CC(N6CCN(c8ccc9c(c8)CN([C@H]8CCC(=O)NC8=O)C9=O)CC6)C7)CC5)nc4c3F)c12 [Compound 218, (S)-3-(5-(4-(7-((1-(((7-(8-ethyl-7-fluoro-3-hydroxynaphthalen-1-yl)-8-fluoro-4-((S)-1-oxa-6-azaspiro[3.5]nonan-6-yl)pyrido[4,3-d]pyrimidin-2-yl)oxy)methyl)cyclopropyl)methyl)-7-azaspiro[3.5]nonan-2-yl)piperazin-1-yl)-1-oxoisoindolin-2-yl)piperidine-2,6-dione] |

| Structure (SMILES) | AUC(0-t) [1] [ng·h/mL] | pIC50 (KRAS-G12V/RAF1) | DC50 (KRAS G12V) [nM] | GI50 (SW620 cells) [nM] |
| --- | --- | --- | --- | --- |
| CCc1c(F)ccc2cc(O)cc(-c3ncc4c(N5CCCC6(CCO6)C5)nc(OCC5(CN6CCC(CN7CCN(c8ccc9c(c8)CN([C@H]8CCC(=O)NC8=O)C9=O)CC7)CC6)CC5)nc4c3F)c12 (stereo partly drawn) [Compound 23, (3S)-3-(5-(4-((1-((1-(((7-(8-ethyl-7-fluoro-3-hydroxynaphthalen-1-yl)-8-fluoro-4-(1-oxa-6-azaspiro[3.5]nonan-6-yl)pyrido[4,3-d]pyrimidin-2-yl)oxy)methyl)cyclopropyl)methyl)piperidin-4-yl)methyl)piperazin-1-yl)-1-oxoisoindolin-2-yl)piperidine-2,6-dione] | 783 | 6.70 to 7.70 |  | < 10 |
| CCc1c(F)ccc2cc(O)cc(-c3ncc4c(N5CCCC6(CCO6)C5)nc(OCC5(CN6CCC(CN7CCC(N8CCN(c9ccc%10c(c9)CN([C@H]9CCC(=O)NC9=O)C%10=O)CC8)CC7)CC6)CC5)nc4c3F)c12 (stereo partly drawn) [Compound 38, (3S)-3-(5-(4-(1-((1-((1-(((7-(8-ethyl-7-fluoro-3-hydroxynaphthalen-1-yl)-8-fluoro-4-(1-oxa-6-azaspiro[3.5]nonan-6-yl)pyrido[4,3-d]pyrimidin-2-yl)oxy)methyl)cyclopropyl)methyl)piperidin-4-yl)methyl)piperidin-4-yl)piperazin-1-yl)-1-oxoisoindolin-2-yl)piperidine-2,6-dione] | 170 |  | 1 to 10 | < 10 |
| CCc1c(F)ccc2cc(O)cc(-c3ncc4c(N5CCC[C@@](C)(O)C5)nc(OCC5(CN6CCC7(CC6)CC(F)(CN6CCN(c8cc(F)c(C9CCC(=O)NC9=O)c(F)c8)CC6)C7)CC5)nc4c3F)c12 (stereo partly drawn) [Compound 46, 3-(4-(4-((7-((1-(((7-(8-ethyl-7-fluoro-3-hydroxynaphthalen-1-yl)-8-fluoro-4-((R)-3-hydroxy-3-methylpiperidin-1-yl)pyrido[4,3-d]pyrimidin-2-yl)oxy)methyl)cyclopropyl)methyl)-2-fluoro-7-azaspiro[3.5]nonan-2-yl)methyl)piperazin-1-yl)-2,6-difluorophenyl)piperidine-2,6-dione] | 9130 |  | 1 to 10 | < 10 |
